Assay results as given in US20240270741A1 (Cogent Biosciences, Inc., priority 2023, published 2024).

Molecular target: FGFR2 (Homo sapiens, UniProt P21802)
Assay: FGFR wild type enzyme assay (HTRF KinEASE-TK), FGFR2
Conditions: Enz FGFR2 (nM), FGFR2 wild type enzyme assay
Protocol: Activity against FGFR wild type and mutant enzymes were determined in biochemical assays using purified intracellular domains of the respective isoforms using HTRF KinEASE-TK assay technology from CisBio, now PerkinElmer. (Catalogue number 62TK0PEC). Briefly test compounds were tested in 11 point 1:3 serial dilutions, typical final concentration ranges from 10,000 nM to 0.17 nM. Test compounds were dissolved in DMSO and added to assay plates using acoustic transfer. Enzyme was pre-incubated with test compound for 30 minutes and the assay was initiated by addition of ATP and TK-peptide substrate. After 60 minutes at room temperature the reaction was quenched with detection reagent and incubated for an additional 60 minutes at room temperature. The plates were read using a multimode reader and the emission ratio of 665 nm to 615 nm was determined. This ratio was converted to percent of control (POC). [1-(high control-sample signal)/(high control-low control)]*100. Wells without compound were used to determine high control values and wells without enzyme were used to determine low control values. The POC values were fit using a four-parameter logistic model and the value where the fit curve was equal to 50 POC was reported as the IC50 using the Signals Vitro Vivo software package (PerkinElmer). Final assay conditions were: 50 mM HEPES pH7.5, 10 mM MgCl2, 1 mM EDTA, 0.01% Brij-35, 2 mM MnCl2, 1 mM DTT, and 0.5 uM TK-peptide.

Sequence of FGFR2 (P21802 399-821 limits assumed): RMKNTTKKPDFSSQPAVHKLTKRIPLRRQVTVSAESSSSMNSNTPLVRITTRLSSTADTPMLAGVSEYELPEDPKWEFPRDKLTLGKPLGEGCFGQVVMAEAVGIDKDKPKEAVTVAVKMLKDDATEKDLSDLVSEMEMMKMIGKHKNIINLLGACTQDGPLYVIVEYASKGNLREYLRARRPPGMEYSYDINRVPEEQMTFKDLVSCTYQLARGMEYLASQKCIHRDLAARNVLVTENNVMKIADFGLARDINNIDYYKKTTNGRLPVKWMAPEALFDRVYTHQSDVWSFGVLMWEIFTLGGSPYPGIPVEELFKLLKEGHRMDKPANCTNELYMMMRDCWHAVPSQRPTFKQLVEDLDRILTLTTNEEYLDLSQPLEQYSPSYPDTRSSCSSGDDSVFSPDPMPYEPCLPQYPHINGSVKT

Row | SMILES | IC50 [nM]
1 | Cc1nc(Sc2cc(-c3cnn(C)c3)cn3ncc(C#N)c23)c(F)cc1F [Example 615, 4-((3,5-difluoro-6-methylpyridin-2-yl)thio)-6-(1-methyl-1H-pyrazol-4-yl)pyrazolo[1,5-a]pyridine-3-carbonitrile] | 2
2 | Cn1cc(-c2cc(Sc3ccccn3)c3c(C#N)cnn3c2)cn1 [Example 616, 6-(1-methyl-1H-pyrazol-4-yl)-4-(pyridin-2-ylthio)pyrazolo[1,5-a]pyridine-3-carbonitrile] | 6
3 | Cn1cc(-c2cc(Sc3ncccc3F)c3c(C#N)cnn3c2)c(N)n1 [Example 617, 6-(3-amino-1-methyl-1H-pyrazol-4-yl)-4-((3-fluoropyridin-2-yl)thio)pyrazolo[1,5-a]pyridine-3-carbonitrile] | 6
4 | CN1CC[C@H](n2cc(-c3cc(Sc4ccccc4C#N)c4c(C#N)cnn4c3)cn2)CC1=O [Example 619, (S)-4-((2-cyanophenyl)thio)-6-(1-(1-methyl-2-oxopiperidin-4-yl)-1H-pyrazol-4-yl)pyrazolo[1,5-a]pyridine-3-carbonitrile] | 2
5 | N#Cc1cc(F)ccc1Sc1cc(-c2ccc(N3CC[C@@H](O)C3)nc2)cn2ncc(C#N)c12 [Example 627, (R)-4-((2-cyano-4-fluorophenyl)thio)-6-(6-(3-hydroxypyrrolidin-1-yl)pyridin-3-yl)pyrazolo[1,5-a]pyridine-3-carbonitrile] | 2
6 | N#Cc1cc(F)ccc1Sc1cc(-c2ccc(N3C[C@@H](O)[C@H](O)C3)nc2)cn2ncc(C#N)c12 [Example 629, 4-((2-cyano-4-fluorophenyl)thio)-6-(6-((3R,4R)-3,4-dihydroxypyrrolidin-1-yl)pyridin-3-yl)pyrazolo[1,5-a]pyridine-3-carbonitrile] | 1.6
7 | Cc1c(-c2cc(Sc3ccc(F)cc3C#N)c3c(C#N)cnn3c2)cnn1[C@@H]1CCCC[C@H]1O [Example 632, 4-((2-cyano-4-fluorophenyl)thio)-6-(1-((1R,2R)-2-hydroxycyclohexyl)-5-methyl-1H-pyrazol-4-yl)pyrazolo[1,5-a]pyridine-3-carbonitrile] | 32
8 | N#Cc1ccccc1Sc1cc(-c2c[nH]nn2)cn2ncc(C#N)c12 [Example 637, 4-((2-cyanophenyl)thio)-6-(1H-1,2,3-triazol-4-yl)pyrazolo[1,5-a]pyridine-3-carbonitrile] | 12
9 | Cn1cc(-c2cc(Sc3ccccc3C#N)c3c(C#N)cnn3c2)ccc1=O [Example 638, 4-((2-cyanophenyl)thio)-6-(1-methyl-6-oxo-1,6-dihydropyridin-3-yl)pyrazolo[1,5-a]pyridine-3-carbonitrile] | 18
10 | CN(CCO)c1ccc(-c2cc(Sc3ccc(F)cc3C#N)c3c(C#N)cnn3c2)cn1 [Example 639, 4-((2-cyano-4-fluorophenyl)thio)-6-(6-((2-hydroxyethyl)(methyl)ami-no)pyridin-3-yl)pyrazolo[1,5-a]pyridine-3-carbonitrile] | 1.5
11 | N#Cc1cc(F)ccc1Sc1cc(-c2ccc(NCCO)nc2)cn2ncc(C#N)c12 [Example 640, 4-((2-cyano-4-fluorophenyl)thio)-6-(6-((2-hydroxyethyl)amino)pyridin-3-yl)pyrazolo[1,5-a]pyridine-3-carbonitrile] | 2.5
12 | Cn1cc(-c2cc(Sc3ccccc3C#N)c3c(C#N)cnn3c2)c(N)n1 [Example 642, 6-(3-amino-1-methyl-1H-pyrazol-4-yl)-4-((2-cyanophenyl)thio)pyrazolo [1,5-a]pyridine-3-carbonitrile] | 2
13 | Cc1c(-c2cc(Sc3ccccc3C#N)c3c(C#N)cnn3c2)cnn1[C@@H]1CCNC(=O)C1 [Example 643] | 3
14 | Cc1c(-c2cc(Sc3ccccc3C#N)c3c(C#N)cnn3c2)cnn1[C@H]1CCNC(=O)C1 [Example 644] | 1.6
15 | CC(=O)NC1CCN(c2ccc(-c3cc(Sc4ccc(F)cc4C#N)c4c(C#N)cnn4c3)cn2)C1 (stereo not shown) [Example 645] | 1.6
16 | N#Cc1cc(F)ccc1Sc1cc(-c2ccc(N3CCOC(CO)C3)nc2)cn2ncc(C#N)c12 (stereo not shown) [Example 646, 4-((2-cyano-4-fluorophenyl)thio)-6-(6-(2-(hydroxymethyl)morpholi-no)pyridin-3-yl)pyrazolo[1,5-a]pyridine-3-carbonitrile] | 1
17 | CN1C[C@@H](n2cc(-c3cc(Sc4ccccc4C#N)c4c(C#N)cnn4c3)cn2)CCC1=O [Example 647, (S)-4-((2-cyanophenyl)thio)-6-(1-(1-methyl-6-oxopiperidin-3-yl)-1H-pyrazol-4-yl)pyrazolo[1,5-a]pyridine-3-carbonitrile] | 1

More lines, now with the values ahead:

Row | IC50 [nM] | SMILES
18 | 0.4 | CN1CC[C@@H](n2cc(-c3cc(Sc4ccccc4C#N)c4c(C#N)cnn4c3)cn2)CC1=O [Example 618, (R)-4-((2-cyanophenyl)thio)-6-(1-(1-methyl-2-oxopiperidin-4-yl)-1H-pyrazol-4-yl)pyrazolo[1,5-a]pyridine-3-carbonitrile]
19 | 0.3 | CC1(C)C[C@H](n2cc(-c3cc(Sc4ccccc4C#N)c4c(C#N)cnn4c3)cn2)CCN1 [Example 620, (R)-4-((2-cyanophenyl)thio)-6-(1-(2,2-dimethylpiperidin-4-yl)-1H-pyrazol-4-yl)pyrazolo[1,5-a]pyridine-3-carbonitrile]
20 | 0.3 | CC1(C)C[C@@H](n2cc(-c3cc(Sc4ccccc4C#N)c4c(C#N)cnn4c3)cn2)CCN1 [Example 621, (S)-4-((2-cyanophenyl)thio)-6-(1-(2,2-dimethylpiperidin-4-yl)-1H-pyrazol-4-yl)pyrazolo[1,5-a]pyridine-3-carbonitrile]
21 | 0.5 | N#Cc1ccccc1Sc1cc(-c2cnn([C@@H]3CCC(=O)NC3)c2)cn2ncc(C#N)c12 [Example 622, (R)-4-((2-cyanophenyl)thio)-6-(1-(6-oxopiperidin-3-yl)-1H-pyrazol-4-yl)pyrazolo[1,5-a]pyridine-3-carbonitrile]
22 | 1 | N#Cc1ccccc1Sc1cc(-c2cnn([C@H]3CCC(=O)NC3)c2)cn2ncc(C#N)c12 [Example 623, (S)-4-((2-cyanophenyl)thio)-6-(1-(6-oxopiperidin-3-yl)-1H-pyrazol-4-yl)pyrazolo[1,5-a]pyridine-3-carbonitrile]
23 | 1 | N#Cc1ccccc1Sc1cc(-c2cnn(C3CCC3)c2)cn2ncc(C#N)c12 [Example 624, 4-((2-cyanophenyl)thio)-6-(1-cyclobutyl-1H-pyrazol-4-yl)pyrazolo[1,5-a]pyridine-3-carbonitrile]
24 | 1 | N#Cc1ccccc1Sc1cc(-c2cnn([C@H]3CCCNC3)c2F)cn2ncc(C#N)c12 [Example 625, (S)-4-((2-cyanophenyl)thio)-6-(5-fluoro-1-(piperidin-3-yl)-1H-pyrazol-4-yl)pyrazolo[1,5-a]pyridine-3-carbonitrile]
25 | 1 | N#Cc1cc(F)ccc1Sc1cc(-c2ccc(N3CC[C@H](O)C3)nc2)cn2ncc(C#N)c12 [Example 626, (S)-4-((2-cyano-4-fluorophenyl)thio)-6-(6-(3-hydroxypyrrolidin-1-yl)pyridin-3-yl)pyrazolo[1,5-a]pyridine-3-carbonitrile]
26 | 1 | N#Cc1cc(F)ccc1Sc1cc(-c2ccc(N3C[C@@H](O)[C@@H](O)C3)nc2)cn2ncc(C#N)c12 [Example 628, 4-((2-cyano-4-fluorophenyl)thio)-6-(6-((3R,4S)-3,4-dihydroxypyrrolidin-1-yl)pyridin-3-yl)pyrazolo[1,5-a]pyridine-3-carbonitrile]
27 | 1 | CC(=O)N1CCC[C@H](n2cc(-c3cc(Sc4nc(C)c(F)cc4F)c4c(C#N)cnn4c3)cn2)C1 [Example 630, (S)-6-(1-(1-acetylpiperidin-3-yl)-1H-pyrazol-4-yl)-4-((3,5-difluoro-6-methylpyridin-2-yl)thio)pyrazolo[1,5-a]pyridine-3-carbonitrile]
28 | 1 | Cc1nc(Sc2cc(-c3cnn([C@H]4CCCNC4)c3)cn3ncc(C#N)c23)c(F)cc1F [Example 631, (S)-4-((3,5-difluoro-6-methylpyridin-2-yl)thio)-6-(1-(piperidin-3-yl)-1H-pyrazol-4-yl)pyrazolo[1,5-a]pyridine-3-carbonitrile]
29 | 1 | Cc1c(-c2cc(Sc3ccc(F)cc3C#N)c3c(C#N)cnn3c2)cnn1[C@H]1CCCC[C@@H]1O [Example 633, 4-((2-cyano-4-fluorophenyl)thio)-6-(1-((2S,2S)-2-hydroxycyclohexyl)-5-methyl-1H-pyrazol-4-yl)pyrazolo[1,5-a]pyridine-3-carbonitrile]
30 | 1 | Cc1c(-c2cc(Sc3ccc(F)cc3C#N)c3c(C#N)cnn3c2)cnn1[C@H]1CC[C@H](OC(=O)[C@H](C)N)CC1 [Example 634, (1r,4S)-4-(4-(3-cyano-4-((2-cyano-4 fluorophenyl)thio)pyrazolo [1,5-a]pyridin-6-yl)-5-methyl-1H-pyrazol-1-yl)cyclohexyl L-alaninate]
31 | 1 | Cc1c(-c2cc(Sc3ccc(F)cc3C#N)c3c(C#N)cnn3c2)cnn1[C@H]1CC[C@H](OC(=O)[C@H](N)C(C)C)CC1 [Example 635, (1r,4R)-4-(4-(3-cyano-4-((2-cyano-4-fluorophenyl)thio)pyrazolo [1,5-a]pyridin-6-yl)-5-methyl-1H-pyrazol-1-yl)cyclohexyl D-valinate]
32 | 1 | Cc1c(-c2cc(Sc3ccc(F)cc3C#N)c3c(C#N)cnn3c2)cnn1[C@H]1CC[C@H](OC(=O)CN)CC1 [Example 636, (1r,4r)-4-(4-(3-cyano-4-((2-cyano-4-fluorophenyl)thio)pyrazolo [1,5-a]pyridin-6-yl)-5-methyl-1H-pyrazol-1-yl)cyclohexyl glycinate]
33 | 1 | [2H]C([2H])([2H])n1cc(-c2cc(Sc3ccccc3C#N)c3c(C#N)cnn3c2)cn1 [Example 641, 4-((2-cyanophenyl)thio)-6-(1-(methyl-d3)-1H-pyrazol-4-yl)pyrazolo[1,5-a]pyridine-3-carbonitrile]
34 | 0.6 | N#Cc1ccccc1Sc1cc(-c2ccc(N3CCO[C@@H](CO)C3)nc2)cn2ncc(C#N)c12 [Example 648, (R)-4-((2-cyanophenyl)thio)-6-(6-(2-(hydroxymethyl)morpholi-no)pyridin-3-yl)pyrazolo[1,5-a]pyridine-3-carbonitrile]
